# According to publication PMC3714282, “Pharmacometabolomics of Response to Sertraline and to Placebo in Major Depressive Disorder – Possible Role for Methoxyindole Pathway” (PLoS ONE, 2013):
# Test system: serum metabolites (tryptophan, tyrosine, purine pathways, antioxidants)
# Assay: LCECA metabolomic profiling of serum: change from baseline at week 1 and week 4 (all, responders, non-responders)
# Type: in vivo, human
# Conditions: serum; for Change 5-HT / Change 5-HTP / Change 5-MTPOL / Change 7-MXAN / Change ATOCO / Change CYS / Change DIOHMAL / Change DOPAC / Change DTOCO / Change GR / Change GRMP / Change GSH / Change HGA / Change HVA / Change HX / Change KYN / Change LD / Change MEL / Change METH / Change MHPG / Change NA-5-HT / Change TRP / Change TRPOL / Change TYR / Change UA / Change VMA / Change XAN / Change XANTH / Change 3-OHKY / Change 3-OMD / Change 4-HBAC / Change 4-HPAC / Change 4-HPLA / Change 5-HIAA: log-transformed concentration; for Change in ratio 3-OHKY/5-HT, Estimate / Change in ratio 3-OHKY/5-HTP, Estimate / Change in ratio 3-OHKY/5-MTPOL, Estimate / Change in ratio 3-OHKY/MEL, Estimate / Change in ratio 3-OHKY/NA-5-HT, Estimate / Change in ratio 3-OHKY/TRP, Estimate / Change in ratio KYN/5-HT, Estimate / Change in ratio KYN/5-HTP, Estimate / Change in ratio KYN/5-MTPOL, Estimate / Change in ratio KYN/MEL, Estimate / Change in ratio KYN/NA-5-HT, Estimate / Change in ratio KYN/TRP, Estimate: pre- to post-treatment (four weeks)
# Source text: Study participants were outpatients, 18–65 years of age, from various clinical sites across the United States. […] A complete description of the inclusion and exclusion used in this study can be found in Table S1. The study protocol was developed in accordance with the principles of the Declaration of Helsinki. All patients provided written informed consent. The study was sponsored and monitored by Pfizer, Inc. Each site's institutional review board approved and oversaw the study. The primary outcome measure was the HAMD17, used to assess depressive symptom severity. Measures were gathered at baseline, and weeks 1 and 4 of treatment at the patient's visits. Serum samples were collected using standard protocol at baseline, week 1 and week 4 of treatment at the clinic visits. Whole blood was collected in serum collection tubes and inverted 5–8 times. Serum samples were allowed to clot at room temperature for 60 minutes and then centrifuged at 1,300×g for 15 minutes. Following centrifugation supernatant was frozen at −80°C until analysis.
# Samples were analyzed using a liquid chromatography electrochemical array (LCECA) platform that has been extensively validated and used in our prior studies in neurodegenerative and psychiatric disorders [30]–[34]. The method includes multiple compounds from the tyrosine, tryptophan, sulfur amino acids and purine pathways, and markers of oxidative stress and protection (for the list of metabolites and abbreviations see Table 1). Levels of 5-Methoxytryptamine (5-MTPM) were measured using a gas chromatography time-of-flight-mass spectrometry (GCTOF-MS) platform. Samples were prepared for analysis as previously described. During the sample preparation, pools were created from equal volumes of subaliquots of all samples. Concentrations of metabolites in the individual samples were expressed as a percentage of the concentration of those metabolites in the averaged pool.
# Data preprocessing: We first removed the metabolites that have more than 40% missing values. […] Principal components analysis (PCA; SIMCA-P+12.0) was used to identify outliers. The analysis was performed for each time point. […] Subjects with ≥3 standard deviations away from the center of data cloud within two principal components (PC's) scores scatter plot were considered outliers and were removed from further analysis.
# These analyses were conducted separately for the sertraline and placebo groups. Between groups t-tests were used to compare baseline to one week and baseline to four week change scores between the sertraline and placebo groups.
# Signatures of response to sertraline and placebo were identified by using paired t-tests to compare week 4 metabolite levels to baseline metabolite levels in the responders and non-responders to therapy. […] These analyses were also performed to evaluate changes in ratios of individual metabolites within (e.g., 5-HT/5-HTP) and between branches of tryptophan pathway (e.g., KYN/MEL).
# [1] = after four weeks, sertraline group
# [2] = after one week, responders to sertraline
# [3] = after one week, sertraline group
smiles,measurement,setting,value
"CN[C@H]1CC[C@@H](c2ccc(Cl)c(Cl)c2)c2ccccc21 [Sertraline, sertraline]",Change 5-HT,[1],−1.9
same,Change 5-HTP,[1],0.12
same,Change 5-MTPOL,[1],0.13
same,Change 7-MXAN,[1],0.083
same,Change ATOCO,[1],0.63
same,Change CYS,[1],−0.0014
same,Change DIOHMAL,[1],0.37
same,Change DOPAC,[1],−0.014
same,Change DTOCO,[1],0.71
same,Change GR,[1],0.0002
same,Change GRMP,[1],0.052
same,Change GSH,[1],0.014
same,Change HGA,[1],0.4
same,Change HVA,[1],0.1
same,Change HX,[1],−0.0057
same,Change KYN,[1],0.045
same,Change LD,[1],0.12
same,Change MEL,[1],0.49
same,Change METH,[1],0.2
same,Change MHPG,[1],−0.21
same,Change NA-5-HT,[1],0.041
same,Change TRP,[1],0.07
same,Change TRPOL,[1],0.061
same,Change TYR,[1],0.13
same,Change UA,[1],−0.058
same,Change VMA,[1],−0.015
same,Change XAN,[1],−0.16
same,Change XANTH,[1],0.047
same,Change 3-OHKY,[2],-0.02
same,Change 3-OMD,[2],-0.18
same,Change 4-HBAC,[2],0.49
same,Change 4-HPAC,[2],0.47
same,Change 4-HPLA,[2],0.18
same,Change 5-HIAA,[2],-0.14
same,Change 5-HT,[2],-0.79
same,Change 5-HTP,[2],-0.06
same,Change 5-MTPOL,[2],0.15
same,Change 7-MXAN,[2],-0.51
same,Change ATOCO,[2],0.4
same,Change CYS,[2],0.0024
same,Change DIOHMAL,[2],0.2
same,Change DOPAC,[2],-0.048
same,Change DTOCO,[2],0.75
same,Change GR,[2],0.17
same,Change GRMP,[2],-0.0083
same,Change GSH,[2],-0.02
same,Change HGA,[2],0.19
same,Change HVA,[2],0.13
same,Change HX,[2],-0.075
same,Change KYN,[2],0.052
same,Change LD,[2],0.13
same,Change MEL,[2],0.41
same,Change METH,[2],0.0032
same,Change MHPG,[2],-0.33
same,Change NA-5-HT,[2],-0.022
same,Change TRP,[2],0.044
same,Change TRPOL,[2],0.082
same,Change TYR,[2],-0.027
same,Change UA,[2],-0.048
same,Change VMA,[2],0.1
same,Change XAN,[2],-0.21
same,Change XANTH,[2],0.033
same,Change 3-OHKY,[3],−0.074
same,Change 3-OMD,[3],−0.12
same,Change 4-HBAC,[3],−0.085
same,Change 4-HPAC,[3],0.29
same,Change 4-HPLA,[3],0.1
same,Change 5-HIAA,[3],−0.17
same,Change 5-HT,[3],−0.75
same,Change 5-HTP,[3],−0.11
same,Change 5-MTPOL,[3],0.041
same,Change 7-MXAN,[3],−0.099
same,Change ATOCO,[3],0.21
same,Change CYS,[3],−0.034
same,Change DIOHMAL,[3],0.18
same,Change DOPAC,[3],−0.13
same,Change DTOCO,[3],0.3
same,Change GR,[3],−0.23
same,Change GRMP,[3],−0.011
same,Change GSH,[3],−0.013
same,Change HGA,[3],0.28
same,Change HVA,[3],0.053
same,Change HX,[3],−0.07
same,Change KYN,[3],−0.045
same,Change LD,[3],0.081
same,Change MEL,[3],0.34
same,Change METH,[3],0.097
same,Change MHPG,[3],−0.17
same,Change NA-5-HT,[3],0.0079
same,Change TRP,[3],0.0036
same,Change TRPOL,[3],0.033
same,Change TYR,[3],0.083
same,Change UA,[3],−0.077
same,Change VMA,[3],0.11
same,Change XAN,[3],−0.19
same,Change XANTH,[3],0.082
same,"Change in ratio 3-OHKY/5-HT, Estimate",Nonresponder to sertraline,0.69
same,"Change in ratio 3-OHKY/5-HTP, Estimate",Nonresponder to sertraline,−0.099
same,"Change in ratio 3-OHKY/5-MTPOL, Estimate",Nonresponder to sertraline,−0.035
same,"Change in ratio 3-OHKY/MEL, Estimate",Nonresponder to sertraline,−0.11
same,"Change in ratio 3-OHKY/NA-5-HT, Estimate",Nonresponder to sertraline,0.0038
same,"Change in ratio 3-OHKY/TRP, Estimate",Nonresponder to sertraline,−0.04
same,"Change in ratio KYN/5-HT, Estimate",Nonresponder to sertraline,0.72
same,"Change in ratio KYN/5-HTP, Estimate",Nonresponder to sertraline,−0.076
same,"Change in ratio KYN/5-MTPOL, Estimate",Nonresponder to sertraline,−0.012
same,"Change in ratio KYN/MEL, Estimate",Nonresponder to sertraline,−0.085
same,"Change in ratio KYN/NA-5-HT, Estimate",Nonresponder to sertraline,0.027
same,"Change in ratio KYN/TRP, Estimate",Nonresponder to sertraline,−0.017
same,"Change in ratio 3-OHKY/5-HT, Estimate",Responder to sertraline,0.97
same,"Change in ratio 3-OHKY/5-HTP, Estimate",Responder to sertraline,0.025
same,"Change in ratio 3-OHKY/5-MTPOL, Estimate",Responder to sertraline,−0.043
same,"Change in ratio 3-OHKY/MEL, Estimate",Responder to sertraline,−0.27
same,"Change in ratio 3-OHKY/NA-5-HT, Estimate",Responder to sertraline,−0.00032
same,"Change in ratio 3-OHKY/TRP, Estimate",Responder to sertraline,0.013
same,"Change in ratio KYN/5-HT, Estimate",Responder to sertraline,0.95
same,"Change in ratio KYN/5-HTP, Estimate",Responder to sertraline,0.0057
same,"Change in ratio KYN/5-MTPOL, Estimate",Responder to sertraline,−0.062
same,"Change in ratio KYN/MEL, Estimate",Responder to sertraline,−0.28
same,"Change in ratio KYN/NA-5-HT, Estimate",Responder to sertraline,−0.019
same,"Change in ratio KYN/TRP, Estimate",Responder to sertraline,−0.006
